Measured values published in patent US20240165148A1, “HYALURONIC ACID-CONJUGATED DIPALMITOYL PHOSPHATIDYL ETHANOLAMINE IN COMBINATION WITH NON-STEROIDAL ANTI-INFLAMMATORY DRUGS (NSAIDS) FOR TREATING OR ALLEVIATING INFLAMMATORY DISEASES” (priority 2021, published 2024).
Entries after “also recorded” stand apart in the source; their conditions may differ.

Legend:
[1] = test system: LTB4 production in the hippocampus (HC); conditions: LPS-stimulated rats, Student's T test
Protocol: (§1) Male Sprague-Dawley rats were purchased from Harlan laboratories, fed ad libitum and housed in accordance with animal facility guidelines. Animals were assigned 10 each to the 7 groups, in accordance with the treatment protocol described below. Body temperature (BT) was measured at all treatment time-points, to evaluate the effects of drug treatment on the LPS-induced changes in BT. On the second day of the experiment, 2 hours post- drug treatment, rats were sacrificed by decapitation after a short anesthesia (with a mixture of isoflurane-oxygen in air inhalation), blood was collected and brain regions (hypothalamus and hippocampus) immediately extracted. Brain regions were manually homogenized in a PBS solution containing a cocktail of phosphatase/protease inhibitors. Homogenates were centrifuged at 4° C., 10,000 rpm, for 10 minutes. Supernatants were collected and stored at −80° C. for further determination.
(§2) Leukotriene B4 (LTB4) levels were determined in the hypothalamus and hippocampus samples, using commercially available ELISA kits.
(§3) Seven groups of rats, ten rats in each group, were administered treatment intra-peritoneally, according to the following treatment regimens: • 1)- Control group- Animals were treated with vehicle control (NaCl 0.9% 0.2 ml); • 2) LPS: Animals were treated with vehicle control at 6 and 2 hours prior to LPS (1 mg/kg) injection. […]

[2] = test system: LTB4 production in the hypothalamus (HT); conditions: LPS-stimulated rats, Student's T test
Protocol: as §1, §2, §3

Di-palmitoyl (C-16) phosphatidyl ethanolamine (DPPE) conjugated to hyaluronic acid (Hy) [HyDPPE]
Effect on LPS-induced LTB4 production (in words) [1]: counteracted the LPS-induced production of LTB4; also recorded: reversed the increased LTB4 production
Effect on LPS-induced LTB4 production (in words) [2]: counteracted the LPS-induced production of LTB4
